According to patent publication US7915259B2, “Diazabicyclononene derivatives and use thereof” (priority 2005, dated 2011):
pIC50: −log10 of the molar value.

What was measured:
[1] = tested on: double transgenic rats with human renin and human angiotensinogen; assay: Hemodynamic measurements (telemetry method) in hypertensive double transgenic rats; format: in vivo, rat; settings: female double transgenic rats
Experimental: Hemodynamic Measurements (Telemetry Method)
Animals—Female double transgenic rats with human renin and human angiotensinogen were purchased from RCC Ltd, Füllingsdorf, Switzerland. All animals were maintained under identical conditions and had free access to normal pelleted rat chow and water. Rats were initially treated with enalapril (1 mg/kg/day) during 2 months. After approximately two weeks following cessation of enalapril treatment the double transgenic rats become hypertensive and reach mean arterial blood pressures in the range of 160-170 mmHg.
Transmitter implantation—The rats were anaesthetised with a mixture of 90 mg/kg Ketamin-HCl (Ketavet, Parke-Davis, Berlin FRG) and 10 mg/kg xylazin (Rompun, Bayer, Leverkusen, FRG) i.p. The pressure transmitter was implanted under aseptic conditions into the peritoneal cavity with the sensing catheter placed in the descending aorta below the renal arteries pointing upstream. The transmitter was sutured to the abdominal musculature and the skin closed.
Telemetry-System—Telemetry units were obtained from Data Sciences (St. Paul, Minn.). […] The tip of the catheter was filled with a viscous gel that prevents blood reflux and was coated with an antithrombogenic film to inhibit thrombus formation. The implants (length=2.5 cm, diameter=1.2 cm) weighted 9 g and have a typical battery life of 6 months. A receiver platform (RPC-1, Data Sciences) connected the radio signal to digitized input that was sent to a dedicated personal computer (Compaq, deskpro). Arterial pressures were calibrated by using an input from an ambient-pressure reference (APR-1, Data Sciences). Systolic, mean and diastolic blood pressure was expressed in millimeter of mercury (mmHg).
[…] The effect of the test substance is expressed as maximal decrease of mean arterial pressure (MAP) in the treated group versus the control group.

recombinant human renin = target: T1, recombinant human renin (Homo sapiens, UniProt P00797); assay: Primary renin inhibition assay: IC50 in buffer, 384 well MTP (Ang I EIA readout); format: biochemical
T1 sequence (P00797 67-406): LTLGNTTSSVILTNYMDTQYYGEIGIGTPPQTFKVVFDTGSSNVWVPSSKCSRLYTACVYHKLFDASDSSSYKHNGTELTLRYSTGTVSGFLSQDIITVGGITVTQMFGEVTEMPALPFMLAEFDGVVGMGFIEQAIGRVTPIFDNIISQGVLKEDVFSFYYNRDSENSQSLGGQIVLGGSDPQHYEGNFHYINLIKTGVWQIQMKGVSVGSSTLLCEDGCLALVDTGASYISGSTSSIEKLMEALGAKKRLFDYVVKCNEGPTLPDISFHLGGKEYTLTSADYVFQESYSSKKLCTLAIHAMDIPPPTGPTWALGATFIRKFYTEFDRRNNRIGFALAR
Experimental: 1. Enzyme Immuno Assay (EIA) to Estimate Ang I Accumulation and Renin Inhibition
1.1 Preparation of Ang I-BSA Conjugate
1.3 mg (1 μmol) of Ang I [1-10 (Bachem, H-1680)] and 17 mg (0.26 μmol) of BSA (Fluka, 05475) were dissolved in 4 mL of 0.1M phosphate buffer, pH 7.4, after which 2 mL of a 1:100 dilution of glutaraldehyde in H2O (Sigma G-5882) was added dropwise. The mixture was incubated overnight at 4° C., then dialyzed against 2 liters of 0.9% NaCl, twice for 4 h at rt, followed by dialysis against 2 liters of PBS 1× overnight at rt. The solution was then filtered with a Syringe filter, 0.45 μm (Nalgene, Cat. No. 194-2545). The conjugate can be stored in polypropylene tubes in 0.05% sodium azide at 4° C. for at least 12 months.
1.2 Preparation of BSA-Ang I Coated MTP […]
The renin assay was adapted from an assay described before (Fischli W. et al., Hypertension, 1991, 18:22-31) and consists of two steps: in the first step, recombinant human renin is incubated with its substrate (commercial human tetradecapeptide renin substrate) to create the product Angiotensin I (Ang I). In the second step, the accumulated Ang I is measured by an immunological assay (enzyme immuno assay, EIA). […]

Cc1cc(Cl)c(OCCOc2ccc(C3=C(C(=O)N(Cc4cccc(C)c4C)C4CC4)[C@H]4CNC[C@@H](C3)N4)cc2)c(Cl)c1 [Compound (I′), (1R,5S)-7-{4-[2-(2,6-dichloro-4-methylphenoxy)ethoxy]-phenyl}-3,9-diazabicyclo[3.3.1]non-6-ene-6-carboxylic acid cyclopropyl-(2,3-dimethylbenzyl)amide]
activity in the animal model ([1]; oral): active | blood pressure decrease (maximal decrease of mean arterial pressure vs control group) ([1]; single oral dose of 3 mg/kg): 17 mmHg | blood pressure decrease (maximal decrease of mean arterial pressure vs control group) ([1]; single oral dose of 10 mg/kg): 30 mmHg | pIC50 (recombinant human renin): 9.52
